The data set in a line: Aqueous stability of formulated compound (% remaining over time). The class given is physicochemical. The note with it: 0.0005% w/v (5 ppm) in pH 6 buffer contain 1% PS80, n = 1.

As to `CC(=O)NCCOC(=O)c1ccc(CCC[C@@H]2[C@@H](CCc3cc(Cl)cc(Cl)c3)[C@H](O)C[C@H]2Cl)s1` [Compound 2, 2-Acetamidoethyl 5-(3-((1R,2R,3R,5R)-5-chloro-2-(3,5-dichlorophenethyl)-3-hydroxycyclopentyl)propyl)thiophene-2-carboxylate], the “% Remaining” value runs as follows: (25° C., 14 days) 99.3%; (25° C., 28 days) 99.6%; (40° C., 14 days) 99.1%; (40° C., 28 days) 99.5%; (60° C., 14 days) 98.6%; (60° C., 28 days) 97.0%.

As to `CC(=O)NCCCOC(=O)c1ccc(CCC[C@@H]2[C@@H](CCc3cc(Cl)cc(Cl)c3)[C@H](O)C[C@H]2Cl)s1` [Compound 3, 3-Acetamidopropyl 5-(3-((1R,2R,3R,5R)-5-chloro-2-(3,5-dichlorophenethyl)-3-hydroxycyclopentyl)propyl)thiophene-2-carboxylate], the “% Remaining” value runs as follows: (25° C., 14 days) 99.2%; (25° C., 28 days) 103.5%; (40° C., 14 days) 99.8%; (40° C., 28 days) 100.5%; (60° C., 14 days) 99.4%; (60° C., 28 days) 98.6%.
